# Laboratory results taken from patent US20100130725A1, “METHODS FOR CHARACTERIZING MOLECULES” (priority 2008, published 2010).
# Assays:
# quiescent A431 cells = test: Epic RWG biosensor DMR assay, agonist mode (primary profile), quiescent A431 cells; format: cell-based, human
# Protocol: All cell lines were obtained from American Type Cell Culture (Manassas, Va.). The cell culture medium was as follows: Dulbecco's modified Eagle's medium (DMEM) supplemented with 10% fetal bovine serum (FBS), 4.5 g/liter glucose, 2 mM glutamine, and antibiotics for human epidermoid carcinoma A431 and human lung carcinoma A549.
# Cells were typically grown using ˜1 to 2×10^4 cells per well at passage 3 to 15 suspended in 50 μl of the corresponding culture medium in the biosensor microplate, and were cultured at 37° C. under air/5% CO2 for ˜1 day. Except for A431, which was subject to ˜20 hr starvation through continuous culture in the serum-free DMEM, the other cell types were directly assayed without starvation. The confluency for all cells at the time of assays was ˜95% to 100%.
# Epic® wavelength interrogation system (Corning Inc., Corning, N.Y.) was used for whole cell sensing. This system consists of a temperature-control unit, an optical detection unit, and an on-board liquid handling unit with robotics. The detection unit is centered on integrated fiber optics, and enables kinetic measures of cellular responses with a time interval of ˜15 sec.
# The RWG biosensor is capable of detecting minute changes in local index of refraction near the sensor surface. Since the local index of refraction within a cell is a function of density and its distribution of biomass (e.g., proteins, molecular complexes), the biosensor exploits its evanescent wave to non-invasively detect ligand-induced dynamic mass redistribution in native cells. […]
# For biosensor cellular assays, molecule solutions were made by diluting the stored concentrated solutions with the HBSS (1× Hanks balanced salt solution, plus 20 mM Hepes, pH 7.1), and transferred into a 384 well polypropylene molecule storage plate to prepare a molecule source plate. […] Both the cell assay plate and the molecule and marker source plate(s) were then incubated in the hotel of the reader system. After ˜1 hr of incubation the baseline wavelengths of all biosensors in the cell assay microplate were recorded and normalized to zero. […]
# A431 cells = test: EGF-induced DMR signal in partially quiescent A431 cells (20 hr in 0.1% fetal bovine serum); format: cell-based, human; conditions: partially quiescent A431, 20 hour starvation in 0.1% fetal bovine serum
# Text: EGFR belongs to the family of receptor tyrosine kinases. EGF binds to and stimulates the intrinsic protein-tyrosine kinase activity of EGFR, initiating a signal transduction cascade, principally involving the MAPK, […] and JNK pathways. Upon EGF stimulation, there are many events leading to mass redistribution in A431 cells—a cell line endogenously over-expressing EGFRs. It is known that EGFR signaling depends on cellular status. As a result, the EGF-induced DMR signals are also dependent on the cellular status. In quiescent cells obtained through 20 hr culturing in 0.1% fetal bovine serum, EGF stimulation leads to a DMR signal with three distinct and sequential phases: (i) a positive phase with increased signal (P-DMR), (ii) a transition phase, and (iii) a decay phase (N-DMR). […]
# An Epic® cellular assay was conducted on partially quiescent A431 cells obtained through 1 day culture with serum containing medium followed by 20 hour starvation culturing in a medium containing 0.1% fetal bovine serum. […] Chemical biology and cell biology studies have shown that this EGF-induced DMR signal is primarily linked to the Ras/MAPK pathway, which proceeds through MEK and leads to cell detachment (Fang, Y., et al., (2005) “Characteristics of dynamic mass redistribution of EGF receptor signaling in living cells measured with label free optical biosensors”. Anal. Chem., 77, 5720-5725).
substance,measurement,setting,value
epidermal growth factor [EGF],EC80 for triggering the DMR signal,quiescent A431 cells; fully quiescent A431 cells,~0.032 µM
same,DMR signal triggered by EGF,"quiescent A431 cells; fully quiescent A431 cells, EGF 32 nM, average of 32 replicates",distinct and robust DMR signal
same,DMR response as a function of EGF dose,"quiescent A431 cells; quiescent A431 cells, data not shown",dose-dependent response
same,DMR signal triggered by EGF,A431 cells,DMR signal with two distinct and sequential phases
